The test system of one experiment is AlkB protein. The following applies: peptide identical to IDL residues 152–169; cited from earlier work. The source says:
The IDL peptide that was used included residues 152–169 of SSB, which has two of the three PxxP motifs in E. coli SSB.

In a further experiment the target is T1, RecG (WT) (Escherichia coli, UniProt P24230).
T1 construct: RecG was expressed in STL2669/pT7pol26 (a gift from Dr Susan Lovett, Brandeis University) with overexpression plasmid pEAW111; made in house; host or cells: E. coli STL2669/pT7pol26
Put plainly: Fluorescence anisotropy binding of 6-FAM-labelled SSB peptides to wildtype RecG. Further details: species or system E. coli. The following applies: read-out: FP K D; WT RecG; fluorescence anisotropy; 10 nM N-terminal 6-FAM peptide; 0.2 M potassium glutamate, 25 mM Tris-acetate pH 7.6, 10 mM magnesium acetate; 30 min at room temperature, read at 25°C; one site fit; triplicate. As to the method:
SSB peptides (sequences listed in Figure 2) were designed with an N-terminal tryptophan residue for quantification and N-terminal 6-FAM label (Genscript). RecG was incubated with 0.2 M potassium glutamate, 1 mM DTT, 0.1 μg/ml BSA, 1 × RecA buffer (25 mM Tris-acetate, pH 7.6, 5% w/v glycerol, 3 mM potassium glutamate, 10 mM magnesium acetate, 1 mM DTT), and 10 nM labeled peptide at room temperature for 30 min. Fluorescence polarization (FP) values were measured at 25°C using a Beacon 2000 Fluorescence Polarization System. Polarization values were normalized to the FP value measured at 0 nM RecG. Normalized FP was converted to normalized anisotropy. Experiments were performed in triplicate, and the data were fit to a one site binding model (, where X is ligand concentration, Y is normalized anisotropy, Bmax is the maximum anisotropy, and KD is the dissociation constant) using GraphPad Prism Software.
Figure 2. RecG binds directly and specifically to the SSB-Ct. (A) Fluorescence anisotropy binding isotherms for RecG binding to SSB-Ct (black), SSB113 (violet), SSBΔF (blue), or SSB IDL (green) peptides. Peptide sequences are listed in parentheses with * representing an N-terminal 6-FAM label. Anisotropy values are normalized to the reading at 0 μM RecG. […] (B–E) ITC analysis of RecG/SSB binding. Thermograms (top) and binding isotherms (bottom) of titrations of (B) full-length SSB, (C) SSB-Ct peptide, (D) SSBΔF or (E) SSBΔF peptide into RecG solutions.
Two models explaining how RecG interacts with SSB have been proposed - RecG could interact with the SSB-Ct ([29]) or RecG could interact with the IDL ([48],[49]). To begin testing each model, we used an equilibrium fluorescence anisotropy assay to measure RecG binding to fluorescently labeled SSB-Ct or IDL peptides (Figure 2). Titration of RecG with the SSB-Ct peptide led to an increase in fluorescence anisotropy, which occurs when protein binding slows the tumbling rate of a labeled peptide ([90]). […] KD values in the low micromolar range are typical for SSB/SIP complexes ([10],[12–14],[19],[23]). […]

The subject of experiment [1] is E. coli ssb mutant strains (ssbΔ151–166, ssbΔ139–164, ssbΔ130–166). The experiment is described as follows: DNA damage sensitivity spot plate assay of ssb IDL deletion strains. Format: cell-based. The following applies: ssbΔ151–166, ssbΔ139–164 and ssbΔ130–166 versus MG1655; LB plates, 37°C overnight.
Procedure: MG1655, recG, and ssb IDL mutant strains were tested for sensitivity to UV light, ciprofloxacin, or mitomycin C. A ΔrecA strain (EAW20) was used as a sensitive control in the ssb IDL experiments. Overnight cultures set in biological triplicate were used to inoculate fresh LB. Cells were grown at 37°C with shaking to an OD600 nm of 0.2 and serially diluted 10-fold in 1 × PBS. Ten μl of each dilution was spotted onto square LB agar plates (for UV) or LB plates containing DNA damaging agents (ciprofloxacin or mitomycin C) poured fresh and kept in the dark. UV sensitivity plates were exposed to shortwave light (254 nm) using a Spectrolinker XL-1000 UV crosslinker (Spectronics Corp) and incubated at 37°C overnight in the dark. Plates were imaged on an iBright Imaging System. […] Briefly, dilutions of each strain were plated onto an LB plate exposed to 0, 50 or 100 J/m^2. Plates were incubated under foil at 37°C overnight, and colonies were counted to obtain colony forming units (CFU)/ml and percent relative survival values. […]
(A) Spot plate assay showing growth of 10-fold serially diluted MG1655 (wildtype ssb), ΔrecA, ssbΔ151–166, ssbΔ139–164, ssbΔ130–166, and ssbΔ120–166 strains exposed to varying UV (top), ciprofloxacin (center), or mitomycin C (bottom) doses. (B) Quantification of strain UV percent survival relative to CFU/ml of the strain at no UV exposure.
The next experiment addresses RecG R474E (Escherichia coli, UniProt P24230, R474E). Put plainly: Fluorescence anisotropy binding of 6-FAM-labelled SSB-Ct peptide to RecG R474E. Further details: species or system E. coli. The following applies: 10 nM 6-FAM peptide, pH 7.6, 25°C, triplicate, read-out: FP K D. From the text:
In vivo assembly mutagenesis ([78]) was used to introduce the R474E or R95A mutation into RecG overexpression plasmid pEAW111 to create variant overexpression plasmids pNJB3 and pEAW1324, respectively. RecG R474E or RecG R95A were expressed in STL2669/pT7pol26 and purified using the same purification scheme as wildtype RecG. The purified proteins appeared as single bands on SDS-PAGE gels and were quantified using monomer extinction coefficient ε280 nm = 5.022 × 10^4 M^−1 cm^−1. The RecG R95A preparation included a very weak nickase contaminant.
SSB peptides (sequences listed in Figure 2) were designed with an N-terminal tryptophan residue for quantification and N-terminal 6-FAM label (Genscript). […] Fluorescence polarization (FP) values were measured at 25°C using a Beacon 2000 Fluorescence Polarization System. Polarization values were normalized to the FP value measured at 0 nM RecG. […]
To more rigorously and quantitatively test the RecG HD2/SSB-Ct binding model, a RecG variant in which one of the putative SSB-binding residues is altered (RecG R474E) was purified and tested for binding to the SSB-Ct peptide and to full-length SSB in vitro. […] Binding was not detected in either titration (Figure 4C). […]

The target in experiment [2] is SSB113 peptide, 6-FAM labelled (E. coli) (UniProt P0AGE0). Put plainly: fluorescence polarisation; RecG titrated against 10 nM 6-FAM peptide; 0.2 M potassium glutamate, 1 mM DTT, 0.1 μg/ml BSA, 1x RecA buffer (25 mM Tris-acetate pH 7.6, 5% glycerol, 10 mM magnesium acetate); 30 min at room temperature, read at 25°C; one site binding model, triplicate.
Experiment [3] addresses SSBΔF peptide, 6-FAM labelled (E. coli). The description is as above.
A further experiment deals with T2, RecG R95A (E. coli, UniProt P24230 1-693, R95A).
T2 construct: RecG DNA helicase, E. coli, R95A introduced into pEAW111 to give pEAW1324; The preparation included a very weak nickase contaminant; source: E. coli STL2669/pT7pol26 with pEAW1324, purified (same scheme as wildtype RecG)
T2 sequence (looked up): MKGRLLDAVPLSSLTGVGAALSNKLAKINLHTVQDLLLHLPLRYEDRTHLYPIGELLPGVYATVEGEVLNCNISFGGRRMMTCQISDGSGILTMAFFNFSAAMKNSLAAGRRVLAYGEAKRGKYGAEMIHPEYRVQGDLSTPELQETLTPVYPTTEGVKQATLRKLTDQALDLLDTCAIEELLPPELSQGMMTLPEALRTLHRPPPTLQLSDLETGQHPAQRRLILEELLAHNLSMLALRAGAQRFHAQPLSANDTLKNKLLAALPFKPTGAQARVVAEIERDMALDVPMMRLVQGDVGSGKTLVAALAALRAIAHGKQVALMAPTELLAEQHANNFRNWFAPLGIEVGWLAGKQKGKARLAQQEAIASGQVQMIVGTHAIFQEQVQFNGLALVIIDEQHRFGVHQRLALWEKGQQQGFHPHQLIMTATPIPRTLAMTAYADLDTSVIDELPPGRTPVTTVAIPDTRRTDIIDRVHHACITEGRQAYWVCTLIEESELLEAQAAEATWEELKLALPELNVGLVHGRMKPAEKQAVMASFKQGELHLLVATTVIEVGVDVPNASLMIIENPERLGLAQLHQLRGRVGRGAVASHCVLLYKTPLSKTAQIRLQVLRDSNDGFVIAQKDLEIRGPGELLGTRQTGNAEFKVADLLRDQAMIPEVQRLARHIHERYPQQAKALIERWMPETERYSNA
Described as above. The following applies: both partners purified.

Experiment [4] concerns the target T3, RecG DNA helicase, wildtype (E. coli, UniProt P24230 1-693).
T3 construct: RecG DNA helicase, E. coli, expressed from overexpression plasmid pEAW111; No tag is mentioned; also called WT RecG; source: E. coli STL2669/pT7pol26 with pEAW111, purified (ammonium sulfate, DEAE, Source 15Q, Source 15S)
T3 sequence (looked up): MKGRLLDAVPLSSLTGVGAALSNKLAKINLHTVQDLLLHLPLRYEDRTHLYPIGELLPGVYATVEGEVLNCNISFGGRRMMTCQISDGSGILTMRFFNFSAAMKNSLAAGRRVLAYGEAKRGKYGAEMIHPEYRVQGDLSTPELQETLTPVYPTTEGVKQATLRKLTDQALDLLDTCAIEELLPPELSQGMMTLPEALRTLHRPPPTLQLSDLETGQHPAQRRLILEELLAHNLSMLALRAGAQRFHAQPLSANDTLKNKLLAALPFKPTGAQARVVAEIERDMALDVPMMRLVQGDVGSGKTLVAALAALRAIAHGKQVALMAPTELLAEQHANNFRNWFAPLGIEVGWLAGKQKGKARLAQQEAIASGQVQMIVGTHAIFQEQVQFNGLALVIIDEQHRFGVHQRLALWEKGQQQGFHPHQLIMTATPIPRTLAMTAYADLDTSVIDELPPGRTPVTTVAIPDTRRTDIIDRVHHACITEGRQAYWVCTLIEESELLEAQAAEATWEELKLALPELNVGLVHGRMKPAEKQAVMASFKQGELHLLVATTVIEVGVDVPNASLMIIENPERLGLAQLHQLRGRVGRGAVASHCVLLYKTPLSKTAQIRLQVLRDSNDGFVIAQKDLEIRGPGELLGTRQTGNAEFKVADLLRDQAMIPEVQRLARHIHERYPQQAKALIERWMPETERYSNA
The description is as above. The following applies: both partners purified.

Where a SMILES comes first, the peptide text is derived from it. Where no end group is shown, it is not given here. The star is where a group is joined. 6FAM = O=C1OC2(c3ccc(O)cc3Oc3cc(O)ccc32)c2cc(C(=O)*)ccc21 A value given as a limit tells only on which side of the number the result lay.

Sequence of SSB113 peptide, 6-FAM labelled (E. coli) (P0AGE0 whole entry, looked up): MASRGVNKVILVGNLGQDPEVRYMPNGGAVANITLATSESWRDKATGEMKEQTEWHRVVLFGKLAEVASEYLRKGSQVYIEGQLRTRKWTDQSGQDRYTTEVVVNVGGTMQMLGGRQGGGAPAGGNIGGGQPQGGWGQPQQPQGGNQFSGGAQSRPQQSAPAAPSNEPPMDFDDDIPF

For `C[C@H](NC(=O)[C@H](Cc1c[nH]c2ccccc12)NC(=O)c1ccc2c(c1)C1(OC2=O)c2ccc(O)cc2Oc2cc(O)ccc21)C(=O)N[C@@H](CCC(N)=O)C(=O)N[C@@H](CO)C(=O)N[C@@H](CCCNC(=N)N)C(=O)N1CCC[C@H]1C(=O)N[C@@H](CCC(N)=O)C(=O)N[C@@H](CCC(N)=O)C(=O)N[C@@H](CO)C(=O)N[C@@H](C)C(=O)N1CCC[C@H]1C(=O)N[C@@H](C)C(=O)N[C@@H](C)C(=O)N1CCC[C@H]1C(=O)N[C@@H](CO)C(=O)N[C@@H](CC(N)=O)C(=O)N[C@@H](CCC(=O)O)C(=O)N1CCC[C@H]1C(=O)O` [IDL 152–169 peptide] (6FAM-WAQSRPQQSAPAAPSNEP-OH; C-terminus assumed), the “binding to AlkB, in words” value in the experiment on AlkB protein was “previously reported to bind to the AlkB protein”. Further, the Kd at RecG (WT) is greater than 30 µM. `O=C(O)c1cn(C2CC2)c2cc(N3CCNCC3)c(F)cc2c1=O` [ciprofloxacin]: the “DNA damage sensitivity of ssb IDL deletion strains, in words” value in experiment [1] was “no change in DNA damage sensitivity compared to MG1655”. Take WMDFDDDIPF [SSB-Ct peptide]: the Kd at RecG R474E was greater than 30 µM.

B1: RecG DNA helicase, wildtype (enzyme)
chain: MKGRLLDAVPLSSLTGVGAALSNKLAKINLHTVQDLLLHLPLRYEDRTHLYPIGELLPGVYATVEGEVLNCNISFGGRRMMTCQISDGSGILTMRFFNFSAAMKNSLAAGRRVLAYGEAKRGKYGAEMIHPEYRVQGDLSTPELQETLTPVYPTTEGVKQATLRKLTDQALDLLDTCAIEELLPPELSQGMMTLPEALRTLHRPPPTLQLSDLETGQHPAQRRLILEELLAHNLSMLALRAGAQRFHAQPLSANDTLKNKLLAALPFKPTGAQARVVAEIERDMALDVPMMRLVQGDVGSGKTLVAALAALRAIAHGKQVALMAPTELLAEQHANNFRNWFAPLGIEVGWLAGKQKGKARLAQQEAIASGQVQMIVGTHAIFQEQVQFNGLALVIIDEQHRFGVHQRLALWEKGQQQGFHPHQLIMTATPIPRTLAMTAYADLDTSVIDELPPGRTPVTTVAIPDTRRTDIIDRVHHACITEGRQAYWVCTLIEESELLEAQAAEATWEELKLALPELNVGLVHGRMKPAEKQAVMASFKQGELHLLVATTVIEVGVDVPNASLMIIENPERLGLAQLHQLRGRVGRGAVASHCVLLYKTPLSKTAQIRLQVLRDSNDGFVIAQKDLEIRGPGELLGTRQTGNAEFKVADLLRDQAMIPEVQRLARHIHERYPQQAKALIERWMPETERYSNA
As to B1, the Kd in experiment [2] is 23 µM; in experiment [3], greater than 30 µM.

B2: SSB-Ct peptide, 6-FAM labelled (peptide)
peptide: 6FAM-WMDFDDDIPF
notes: N-terminal tryptophan residue added for quantification; C-terminal tip of SSB, E. coli; also called fluorescently labeled SSB-Ct peptide; source: synthetic peptide (Genscript)
For B2, the Kd with RecG R95A came to 1.8 ± 0.4 µM; in experiment [4], 3.1 ± 0.4 µM.
